Test results from PubChem BioAssay (NCI).
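Values below derive from 48-hour exposures of cells grown in 96-well plates, with endpoints linearly interpolated between the two concentrations bracketing the appropriate inhibition level. GI50 marks 50% less growth. TGI is the concentration that stops growth completely.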

How the values were obtained:
Experiment in all cases: DTP human tumour cell line panel, 48 h; in the data active = GI50 below about 0.43 µM; inactive = the rest
HCT-116 colon = system: HCT-116 colon
OVCAR-5 ovarian = system: OVCAR-5 ovarian
UO-31 renal = system: UO-31 renal
A549 NSCLC = system: A549 NSCLC
U251 CNS = system: U251 CNS
OVCAR-8 ovarian = system: OVCAR-8 ovarian
SF-268 CNS = system: SF-268 CNS
HCC-2998 colon = system: HCC-2998 colon
SR leukemia = system: SR leukemia
HCT-15 colon = system: HCT-15 colon
COLO 205 colon = system: COLO 205 colon
RXF 393 renal = system: RXF 393 renal
DU-145 prostate = system: DU-145 prostate
MCF7 breast = system: MCF7 breast
BT-549 breast = system: BT-549 breast
NCI/ADR-RES ovarian = system: NCI/ADR-RES ovarian
NCI-H226 lung = system: NCI-H226 lung
TK-10 renal = system: TK-10 renal
NCI-H23 lung = system: NCI-H23 lung
SK-OV-3 ovarian = system: SK-OV-3 ovarian
LOX IMVI melanoma = system: LOX IMVI melanoma
MOLT-4 leukemia = system: MOLT-4 leukemia
OVCAR-4 ovarian = system: OVCAR-4 ovarian
HL-60(TB) leukemia = system: HL-60(TB) leukemia
T-47D breast = system: T-47D breast
ACHN renal = system: ACHN renal
UACC-62 melanoma = system: UACC-62 melanoma
SK-MEL-28 melanoma = system: SK-MEL-28 melanoma
HOP-62 NSCLC = system: HOP-62 NSCLC
OVCAR-3 ovarian = system: OVCAR-3 ovarian
IGROV1 ovarian = system: IGROV1 ovarian
SF-539 CNS = system: SF-539 CNS
SF-295 CNS = system: SF-295 CNS
SK-MEL-2 melanoma = system: SK-MEL-2 melanoma
CCRF-CEM leukemia = system: CCRF-CEM leukemia
786-0 renal = system: 786-0 renal
HS 578T breast = system: HS 578T breast
M14 melanoma = system: M14 melanoma
RPMI-8226 leukemia = system: RPMI-8226 leukemia
SK-MEL-5 melanoma = system: SK-MEL-5 melanoma
SNB-19 CNS = system: SNB-19 CNS
UACC-257 melanoma = system: UACC-257 melanoma
A498 renal = system: A498 renal
MDA-MB-435 = system: MDA-MB-435
SW-620 colon = system: SW-620 colon
MALME-3M melanoma = system: MALME-3M melanoma
PC-3 prostate = system: PC-3 prostate
K-562 leukemia = system: K-562 leukemia
KM12 colon = system: KM12 colon
NCI-H522 lung = system: NCI-H522 lung
CAKI-1 renal = system: CAKI-1 renal
SN12C renal = system: SN12C renal
HT29 colon = system: HT29 colon
NCI-H460 lung = system: NCI-H460 lung
MDA-MB-231 breast = system: MDA-MB-231 breast
HOP-92 NSCLC = system: HOP-92 NSCLC

COc1ccc(-c2nnc(SCC(=O)Nc3ccc(/C(C)=N\O)cc3)n2-c2ccccc2)cc1OC
6.8 µM: TGI (HOP-62 NSCLC)
37.7 µM: TGI (SF-295 CNS)
inactive: GI50 (HCT-116 colon) 11.3 µM | GI50 (OVCAR-5 ovarian) > 100 µM | GI50 (UO-31 renal) > 100 µM | GI50 (A549 NSCLC) 9.73 µM | GI50 (U251 CNS) 3.61 µM | GI50 (OVCAR-8 ovarian) 7.36 µM | GI50 (SF-268 CNS) 3.07 µM | GI50 (HCC-2998 colon) > 100 µM | GI50 (SR leukemia) > 100 µM | GI50 (HCT-15 colon) > 100 µM | GI50 (COLO 205 colon) > 100 µM | GI50 (RXF 393 renal) 2.56 µM | GI50 (DU-145 prostate) 24.9 µM | GI50 (MCF7 breast) > 100 µM | GI50 (BT-549 breast) 13.7 µM | GI50 (NCI/ADR-RES ovarian) > 100 µM | GI50 (NCI-H226 lung) 7.28 µM | GI50 (TK-10 renal) 11.3 µM | GI50 (NCI-H23 lung) 12.9 µM | GI50 (SK-OV-3 ovarian) 2.73 µM | GI50 (LOX IMVI melanoma) > 100 µM | GI50 (MOLT-4 leukemia) > 100 µM | GI50 (OVCAR-4 ovarian) > 100 µM | GI50 (HL-60(TB) leukemia) > 100 µM | GI50 (T-47D breast) 9.45 µM | GI50 (ACHN renal) 8.08 µM | GI50 (UACC-62 melanoma) > 100 µM | GI50 (SK-MEL-28 melanoma) > 100 µM | GI50 (HOP-62 NSCLC) 2.06 µM | GI50 (OVCAR-3 ovarian) 7.87 µM | GI50 (IGROV1 ovarian) 3.74 µM | GI50 (SF-539 CNS) 4.77 µM | GI50 (SF-295 CNS) 3.39 µM | GI50 (SK-MEL-2 melanoma) 5.04 µM | GI50 (CCRF-CEM leukemia) > 100 µM | GI50 (786-0 renal) 14.9 µM | GI50 (HS 578T breast) 3.75 µM | GI50 (M14 melanoma) 97.4 µM | GI50 (RPMI-8226 leukemia) > 100 µM | GI50 (SK-MEL-5 melanoma) > 100 µM | GI50 (SNB-19 CNS) 6.43 µM | GI50 (UACC-257 melanoma) > 100 µM | GI50 (A498 renal) 2.72 µM | GI50 (MDA-MB-435) > 100 µM | GI50 (SW-620 colon) > 100 µM | GI50 (MALME-3M melanoma) 17.2 µM | GI50 (PC-3 prostate) > 100 µM | GI50 (K-562 leukemia) > 100 µM | GI50 (KM12 colon) > 100 µM | GI50 (NCI-H522 lung) 21.4 µM | GI50 (CAKI-1 renal) > 100 µM | GI50 (SN12C renal) 26.2 µM | GI50 (HT29 colon) > 100 µM | GI50 (NCI-H460 lung) > 100 µM | GI50 (MDA-MB-231 breast) 4.26 µM | GI50 (HOP-92 NSCLC) 2.12 µM
46.1 µM: TGI (A498 renal)
28.8 µM: TGI (SK-MEL-2 melanoma)
38.9 µM: TGI (SF-539 CNS)
29.4 µM: TGI (IGROV1 ovarian)
6.42 µM: TGI (HOP-92 NSCLC)
7.11 µM: TGI (RXF 393 renal)
23.8 µM: TGI (MDA-MB-231 breast)
20.3 µM: TGI (SF-268 CNS)
52.7 µM: TGI (TK-10 renal)
19.6 µM: TGI (U251 CNS)
> 100 µM: TGI (HCT-116 colon) | TGI (OVCAR-5 ovarian) | TGI (UO-31 renal) | TGI (A549 NSCLC) | TGI (OVCAR-8 ovarian) | TGI (HCC-2998 colon) | TGI (SR leukemia) | TGI (HCT-15 colon) | TGI (COLO 205 colon) | TGI (DU-145 prostate) | TGI (MCF7 breast) | TGI (BT-549 breast) | TGI (NCI/ADR-RES ovarian) | TGI (NCI-H226 lung) | TGI (NCI-H23 lung) | TGI (LOX IMVI melanoma) | TGI (MOLT-4 leukemia) | TGI (OVCAR-4 ovarian) | TGI (HL-60(TB) leukemia) | TGI (T-47D breast) | TGI (ACHN renal) | TGI (UACC-62 melanoma) | TGI (SK-MEL-28 melanoma) | TGI (OVCAR-3 ovarian) | TGI (CCRF-CEM leukemia) | TGI (786-0 renal) | TGI (HS 578T breast) | TGI (M14 melanoma) | TGI (RPMI-8226 leukemia) | TGI (SK-MEL-5 melanoma) | TGI (SNB-19 CNS) | TGI (UACC-257 melanoma) | TGI (MDA-MB-435) | TGI (SW-620 colon) | TGI (MALME-3M melanoma) | TGI (PC-3 prostate) | TGI (K-562 leukemia) | TGI (KM12 colon) | TGI (NCI-H522 lung) | TGI (CAKI-1 renal) | TGI (SN12C renal) | TGI (HT29 colon) | TGI (NCI-H460 lung)
13.7 µM: TGI (SK-OV-3 ovarian)
